Data published in patent publication US7063946B2, “Methods, reagents, kits and apparatus for protein function analysis” (Meso Scale Technologies, LLC., priority 2001, dated 2006).

Key:
[1] = tested on: pooled phosphopeptide:BSA conjugates (Pools A-D); experiment: Coded multiplex phosphopeptide binding assay with pooled peptide:BSA conjugates on 4 spots; settings: for ECL signal, spot A: Pool A, EGFR-pTyr1148, IkBa-24ppC, Myc-p58Tp62S; for ECL signal, spot B: Pool B, EGFR-pTyr992, EGFR-pTyr1148, Smad3C; for ECL signal, spot C: Pool C, EGFR-pTyr1068, IkBa-24ppC, Smad3C; for ECL signal, spot D: Pool D, EGFR-pTyr992, EGFR-pTyr1068, Myc-p58Tp62S
Excerpt: To prepare the Multi-Spot IPR plates, in this example we made use of pools of the peptide:BSA conjugates to coat each of 4 spots per well in a 96 well plate. To achieve this we made the following pools; • Pool A; EGFR-pTyr1148, IkBa-24ppC, Myc-p58Tp62S. • Pool B; EGFR-pTyr992, EGFR-pTyr1148, Smad3C. • Pool C; EGFR-pTyr1068, IkBa-24ppC, Smad3C. • Pool D; EGFR-pTyr992, EGFR-pTyr1068, Myc-p58Tp62S.
This combination of the various peptides results in any single peptide being present in two pools. Each of these four pools is then spotted on to a unique spot in a 4 spot array. In this way any single binding protein with specificity for only one of the peptides would bind to two spots; the identity of the two spots would allow the identification of the peptide involved in the binding reaction.
Typically approximately 120 fmole of peptide:BSA conjugate in 0.25 μl was deposited on each spot of a 4-spot multi-array IPR plates using a BioDot Dispenser (Bio-Dot Inc., vIrvine Calif.). At this stage, the plates were dried then used or stored under desiccated condition. A few hours prior to usage, the plates were rehydrated and blocked with 3% BSA, in PBS.
To test the system the following EST clones IMAGE # 3491843, 4237375, 4398016, 4419252, 3872466, 3907115 were obtained. These clones express the following genes βTRCP1, βTRCP2, Grb2, PLCγ, CBP and Shc1, respectively. […] These DNAs were used to produce proteins as described in the Materials and Methods. Proteins were transferred to a well of the 4 spot peptide-coated and BSA blocked ECL plates. The binding assay (using Sulfo-TAG labeled streptavidin as a detection agent) was carried our according to the procedures described in Example 11.

Epha7 = biological target: T1, Epha7 (Mus musculus, UniProt Q61772); experiment: Kinase inhibitor profiling, autophosphorylation; format: biochemical
T1 construct: autophosphorylation activity from full-length clones Spleen Tyrosine Kinase (SYK) and Eph receptor-A7 (EphA7); host or cells: rabbit reticulocyte lysate, TnT coupled in vitro transcription/translation (cell-free)
T1 sequence (Q61772 28-998): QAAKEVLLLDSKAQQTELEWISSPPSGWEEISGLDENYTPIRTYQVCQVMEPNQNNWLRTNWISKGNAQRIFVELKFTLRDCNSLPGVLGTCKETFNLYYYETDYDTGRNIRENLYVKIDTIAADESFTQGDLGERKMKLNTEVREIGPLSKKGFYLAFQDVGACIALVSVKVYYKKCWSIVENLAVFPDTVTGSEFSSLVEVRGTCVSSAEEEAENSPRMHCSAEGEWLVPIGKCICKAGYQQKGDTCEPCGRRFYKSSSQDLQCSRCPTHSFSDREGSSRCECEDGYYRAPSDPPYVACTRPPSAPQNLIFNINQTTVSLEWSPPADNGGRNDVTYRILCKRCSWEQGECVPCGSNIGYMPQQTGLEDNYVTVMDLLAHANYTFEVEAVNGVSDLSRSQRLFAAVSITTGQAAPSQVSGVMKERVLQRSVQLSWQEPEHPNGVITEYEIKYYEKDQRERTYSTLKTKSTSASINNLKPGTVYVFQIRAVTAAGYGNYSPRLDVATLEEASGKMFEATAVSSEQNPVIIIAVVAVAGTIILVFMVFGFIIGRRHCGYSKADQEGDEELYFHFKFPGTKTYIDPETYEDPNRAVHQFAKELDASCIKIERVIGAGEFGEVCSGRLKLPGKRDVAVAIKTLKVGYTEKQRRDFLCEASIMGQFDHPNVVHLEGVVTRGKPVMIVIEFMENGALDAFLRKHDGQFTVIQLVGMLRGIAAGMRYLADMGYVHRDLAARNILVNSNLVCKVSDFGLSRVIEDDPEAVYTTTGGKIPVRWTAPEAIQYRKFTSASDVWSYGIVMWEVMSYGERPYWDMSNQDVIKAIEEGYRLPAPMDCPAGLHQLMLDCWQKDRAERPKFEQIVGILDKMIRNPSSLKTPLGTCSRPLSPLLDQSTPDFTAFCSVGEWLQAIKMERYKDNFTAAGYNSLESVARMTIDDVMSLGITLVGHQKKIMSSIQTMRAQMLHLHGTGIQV

Molecule | Code (pattern of positive spots) [1] | Peptide determined from code [1] | ECL signal, spot A [1] | ECL signal, spot B [1] | ECL signal, spot C [1] | ECL signal, spot D [1] | Inhibition specificity towards Autophosphorylation at 10X IC50, Epha7 (Epha7)
3491843: IMAGE clone protein: βTRCP1 [compound 3491843] | A, C | IkBa-24ppC | 9536 | 208 | 11184 | 171 | 
3872466: IMAGE clone protein: mCBP [compound 3872466] | Neg. | Negative | 19 | 30 | 22 | 15 | 
Cc1cc2ncc(-c3ccc(O)c(O)c3)nc2cc1C [AG-1433] |  |  |  |  |  |  | H (high inhibition (“H”=less than 25% of the activity remaining))
COc1c(C=O)c(O)cc2c1C(=O)c1ccccc1C2=O [Damnacanthal] |  |  |  |  |  |  | H (high inhibition (“H”=less than 25% of the activity remaining))
